Test results reported in PMC6117091, “The C. difficile clnRAB operon initiates adaptations to the host environment in response to LL-37” (PLoS Pathogens, 2018).

Tested on: gene expression in C. difficile 630Δerm
Assay: RNA-seq, genes differentially expressed in LL-37
Conditions: 2 µg/ml LL-37, BHIS

For `CC[C@H](C)[C@H](NC(=O)[C@H](CCCCN)NC(=O)[C@H](CCC(=O)O)NC(=O)[C@H](CCCCN)NC(=O)[C@H](CO)NC(=O)[C@H](CCCCN)NC(=O)[C@H](CCCNC(=N)N)NC(=O)[C@H](Cc1ccccc1)NC(=O)[C@H](Cc1ccccc1)NC(=O)[C@H](CC(=O)O)NC(=O)CNC(=O)[C@H](CC(C)C)NC(=O)[C@@H](N)CC(C)C)C(=O)NCC(=O)N[C@@H](CCCCN)C(=O)N[C@@H](CCC(=O)O)C(=O)N[C@@H](Cc1ccccc1)C(=O)N[C@@H](CCCCN)C(=O)N[C@@H](CCCNC(=N)N)C(=O)N[C@H](C(=O)N[C@H](C(=O)N[C@@H](CCC(N)=O)C(=O)N[C@@H](CCCNC(=N)N)C(=O)N[C@H](C(=O)N[C@@H](CCCCN)C(=O)N[C@@H](CC(=O)O)C(=O)N[C@@H](Cc1ccccc1)C(=O)N[C@@H](CC(C)C)C(=O)N[C@@H](CCCNC(=N)N)C(=O)N[C@@H](CC(N)=O)C(=O)N[C@@H](CC(C)C)C(=O)N[C@H](C(=O)N1CCC[C@H]1C(=O)N[C@@H](CCCNC(=N)N)C(=O)N[C@H](C(=O)N[C@@H](CCC(=O)O)C(=O)N[C@@H](CO)C(=O)O)[C@@H](C)O)C(C)C)[C@@H](C)CC)C(C)C)[C@@H](C)CC` [LL-37], the “23S_rRNA fold change in LL-37” value was 0.27, the “CD630_00470 (ispD) fold change in LL-37” value was 0.48 and the “CD630_01060 (cwlD) fold change in LL-37” value was 0.43. For the same molecule, the “CD630_01250 fold change in LL-37” value was 0.44, the “CD630_01631 fold change in LL-37” value was 0.22 and the “CD630_01930 (groS) fold change in LL-37” value was 0.46. For the same molecule, the “CD630_02910 fold change in LL-37” value was 3.25, the “CD630_03140 fold change in LL-37” value was 0.41 and the “CD630_03240 (cbiM) fold change in LL-37” value was 0.42. The “CD630_03250 (cbiN) fold change in LL-37” value was 0.50, the “CD630_03260 (cbiQ1) fold change in LL-37” value was 0.41 and the “CD630_03270 (cbiO) fold change in LL-37” value was 0.40. For the same molecule, the “CD630_03580 fold change in LL-37” value was 3.38, the “CD630_03830 fold change in LL-37” value was 2.58 and the “CD630_03901 fold change in LL-37” value was 0.43. The “CD630_04090 fold change in LL-37” value was 0.44, the “CD630_04440 (ortB) fold change in LL-37” value was 2.09 and the “CD630_04670 fold change in LL-37” value was 3.43. For the same molecule, the “CD630_04780 (spaF) fold change in LL-37” value was 3.43, the “CD630_04800 (spaG) fold change in LL-37” value was 2.29 and the “CD630_04890 fold change in LL-37” value was 2.26. The “CD630_04900 fold change in LL-37” value was 4.13, the “CD630_04960 fold change in LL-37” value was 4.13 and the “CD630_04970 fold change in LL-37” value was 3.86. The “CD630_04980 fold change in LL-37” value was 4.13, the “CD630_05000 fold change in LL-37” value was 3.61 and the “CD630_05060 fold change in LL-37” value was 3.54. The “CD630_05100 fold change in LL-37” value was 3.07, the “CD630_05101 fold change in LL-37” value was 3.31 and the “CD630_05102 fold change in LL-37” value was 3.35. The “CD630_05103 fold change in LL-37” value was 3.27, the “CD630_05490 fold change in LL-37” value was 4.74 and the “CD630_05500 fold change in LL-37” value was 5.52. For the same molecule, the “CD630_05670 fold change in LL-37” value was 0.44, the “CD630_05770 fold change in LL-37” value was 2.96 and the “CD630_05780 fold change in LL-37” value was 0.47. The “CD630_05790 fold change in LL-37” value was 0.40, the “CD630_06140 fold change in LL-37” value was 0.43 and the “CD630_06240 fold change in LL-37” value was 0.45. For the same molecule, the “CD630_07290 (gcvH) fold change in LL-37” value was 2.23, the “CD630_08450 fold change in LL-37” value was 0.40 and the “CD630_08530 (oppB) fold change in LL-37” value was 3.02. The “CD630_08570 (oppF) fold change in LL-37” value was 2.88, the “CD630_09080 fold change in LL-37” value was 0.23 and the “CD630_09170 fold change in LL-37” value was 0.45. The “CD630_09260 fold change in LL-37” value was 2.36, the “CD630_09340 fold change in LL-37” value was 0.39 and the “CD630_09360 fold change in LL-37” value was 0.28. For the same molecule, the “CD630_09950 (serA) fold change in LL-37” value was 0.23, the “CD630_09960 fold change in LL-37” value was 0.24 and the “CD630_10280 fold change in LL-37” value was 0.48. The “CD630_10540 (bcd2) fold change in LL-37” value was 2.94, the “CD630_10550 (etfB3) fold change in LL-37” value was 3.07 and the “CD630_10560 (etfA3) fold change in LL-37” value was 3.22. The “CD630_10570 (crt2) fold change in LL-37” value was 2.97, the “CD630_10580 (hbd) fold change in LL-37” value was 3.51 and the “CD630_10590 (thlA1) fold change in LL-37” value was 3.56. The “CD630_10850 fold change in LL-37” value was 2.17, the “CD630_10860 fold change in LL-37” value was 2.54 and the “CD630_10980 fold change in LL-37” value was 2.17. The “CD630_11261 fold change in LL-37” value was 0.42, the “CD630_11540 fold change in LL-37” value was 0.40 and the “CD630_11710 (etfB4) fold change in LL-37” value was 0.45. The “CD630_12382 fold change in LL-37” value was 5.60, the “CD630_12400 (vanZ) fold change in LL-37” value was 28.43 and the “CD630_12700 fold change in LL-37” value was 0.45. For the same molecule, the “CD630_13450 fold change in LL-37” value was 0.46, the “CD630_13460 fold change in LL-37” value was 0.50 and the “CD630_13610 fold change in LL-37” value was 0.37. For the same molecule, the “CD630_13640 fold change in LL-37” value was 0.40, the “CD630_13720 fold change in LL-37” value was 0.48 and the “CD630_13900 fold change in LL-37” value was 2.35. The “CD630_14240 fold change in LL-37” value was 2.97, the “CD630_14890 (metN) fold change in LL-37” value was 0.32 and the “CD630_14900 (met I) fold change in LL-37” value was 0.32. For the same molecule, the “CD630_15100 fold change in LL-37” value was 2.24, the “CD630_15120 (panC) fold change in LL-37” value was 2.15 and the “CD630_15470 (hisZ) fold change in LL-37” value was 2.92. The “CD630_15490 (hisC) fold change in LL-37” value was 2.86, the “CD630_15500 (hisB) fold change in LL-37” value was 3.12 and the “CD630_15510 (hisH) fold change in LL-37” value was 3.29. The “CD630_15520 (hisA) fold change in LL-37” value was 2.80, the “CD630_15540 (hisI) fold change in LL-37” value was 3.10 and the “CD630_15560 fold change in LL-37” value was 2.16. The “CD630_15660 (ilvB) fold change in LL-37” value was 2.01, the “CD630_15800 (hom2) fold change in LL-37” value was 0.49 and the “CD630_16070 fold change in LL-37” value was 30.25. For the same molecule, the “CD630_16090 fold change in LL-37” value was 30.62, the “CD630_16100 fold change in LL-37” value was 64.45 and the “CD630_16110 fold change in LL-37” value was 34.77. The “CD630_16120 fold change in LL-37” value was 3.18, the “CD630_16130 (cotA) fold change in LL-37” value was 2.18 and the “CD630_16170 (clnR) fold change in LL-37” value was 186.82. For the same molecule, the “CD630_16180 (clnA) fold change in LL-37” value was 202.99, the “CD630_16190 (clnB) fold change in LL-37” value was 192.16 and the “CD630_16200 fold change in LL-37” value was 2.15. For the same molecule, the “CD630_16310 (sodA) fold change in LL-37” value was 2.59, the “CD630_16590 fold change in LL-37” value was 2.69 and the “CD630_16632 fold change in LL-37” value was 0.32. For the same molecule, the “CD630_16740 fold change in LL-37” value was 2.47, the “CD630_16990 (ribE) fold change in LL-37” value was 4.23 and the “CD630_17000 (ribD) fold change in LL-37” value was 3.65. The “CD630_17021 (thiS) fold change in LL-37” value was 2.41, the “CD630_17151 fold change in LL-37” value was 2.24 and the “CD630_17170 fold change in LL-37” value was 2.07. For the same molecule, the “CD630_17452 fold change in LL-37” value was 0.34, the “CD630_17540 fold change in LL-37” value was 0.42 and the “CD630_17880 fold change in LL-37” value was 2.48. The “CD630_18020 fold change in LL-37” value was 3.05, the “CD630_18270 fold change in LL-37” value was 0.47 and the “CD630_18470 fold change in LL-37” value was 0.36. For the same molecule, the “CD630_18860 fold change in LL-37” value was 0.41, the “CD630_18870 (csfU) fold change in LL-37” value was 5.34 and the “CD630_18880 (rsiU) fold change in LL-37” value was 3.69.
